The text below walks through data of US9403800B2, “Compounds for inhibition of cancer cell proliferation” (ChemRegen, Inc., priority 2012, dated 2016).

Usually half-life stands for the time needed for the level to fall by half in the phase considered. As usually defined, the EC50 is the midpoint of the concentration-response curve.

Data set [1] relates to normal human fibroblast cells. Description: effect on normal human fibroblast cells. It is filed as cell-based.
The subject of data set [2] is HEK-293T cells. Description: cytotoxicity by leakage of G6PDH, HEK-293T. The format is cell-based.
The test system of data set [3] is SW480 colorectal cancer model cell line. The data set is described as follows: SW480 cell proliferation and cell cycle (InCell 1000). It is filed as cell-based, human. The text has this: Previous studies have shown that the Wnt signaling pathway drives cellular proliferation of a number of cancers through up-regulation of genes for several proteins crucial for cell division including Cyclin D1, c-Myc, etc. and treatment of cancer cells with 1 or analogs decreases cellular proliferation. Accordingly, we examined the effect of 1 and analogs on cell proliferation of human cancer cell lines. […] The results were confirmed by studying the effects of 1 on SW480 human colon cell cycle determined by cell images captured by InCell 1000.

The test system of the next data set is NF-B signaling pathway. Description: NF-B signaling pathway transcriptional activity (selectivity). It is filed as cell-based.
The subject of the next data set is TGF-signaling pathway. Description: TGF-signaling pathway transcriptional activity (selectivity). The format is cell-based.
Another data set deals with HEK293 cells. The data set is described as follows: apoptosis in HEK293 cells. The format is cell-based. To be noted: upon treatment.
The nature of data set [4]: chemical stability by HPLC. The following applies: determined by HPLC. It is filed as physicochemical. The text has this: As observed from the data presented in Table 1, both free bases and salts gave significant Wnt inhibition potency. On the basis of the lipophilic character of many of the analogs, it is likely interaction site on the molecular target has a lipophilic character although polar interactions are apparent. To increase solubility, were possible, hydrochloride salts of the sulfonamides were synthesized. To afford appropriate bioavailability, sulfonamides were synthesized with chemical and metabolic stability in mind.

Data set [5] concerns HEK-293T cells. Description: Alamar Blue resazurin-based cell viability assay, HEK-293T. The following applies: Homo sapiens, read-out: decrease of cell viability, EC50. On the technique in general: Resazurin is reduced to fluorescent resorufin, in cell work by metabolically active cells.

`O=C1CCCN1c1ccc(S(=O)(=O)N2CCCc3ccccc32)cc1` [Compound 1, 1-(4-(3,4-dihydroquinolin-1(2H)-ylsulfonyl)phenyl)pyrrolidin-2-one]: the “effect on normal human fibroblast cells” value in data set [1] is “did not have any affect on normal human fibroblast cells”. The “cytotoxicity (leakage of G6PDH)” value in the data set on HEK-293T cells [2] is “not cytotoxic”. The Ki67 protein levels result in data set [3] (SW480 cells) is “elevated”. For the same compound, the cell cycle distribution entry in data set [3] (SW480 cells, InCell 1000 images) was “significantly more cells in G2 and less in G1/S phases”. Further, the “cancer cell proliferation (in words)” value in data set [3] (SW480 colon cancer cell line) is given as “significantly inhibited cancer cell proliferation”. The “transcriptional activity of the NF-B signaling pathway” value with NF-B signaling pathway is “did not alter the transcriptional activity”. The “transcriptional activity of the TGF-signaling pathway” value in the data set with TGF-signaling pathway is recorded as “did not alter the transcriptional activity”. Besides, the “apoptotic HEK293 cells” value in the data set on HEK293 cells is “increase in apoptotic HEK293 cells”. The compound further had a half-life in data set [4] of 120 h. In addition, the concentration giving a half-maximal response (EC50) in the data set with HEK-293T cells [5] was roughly 25 nM.
